This note sets out measurements from article PMC10108347, “Heterobifunctional Ligase Recruiters Enable pan-Degradation of Inhibitor of Apoptosis Proteins” (Journal of Medicinal Chemistry, 2023).

Several values for one entry are separate records, joined by “and”; a condition that tells them apart may be missing. Equal entries are not always repeated. Entries after “also recorded” stand apart in the source; their conditions may differ. Where two headings read alike, the source gives them in different places.

The test system of one data set is DB. The data set is described as follows: CellTiter-Glo cell viability assay, DB. The format is cell-based. Particulars: Homo sapiens, DB. As to the method: (§1) As TNF-α and related signaling cascades represent crucial factors for the single-agent activity of IAP-targeting compounds,[29],[38],[39],[55] the viability inhibition of sensitive cell lines was evaluated in the presence and absence of this inflammatory stimulus. […] These effects were independent of IAP baseline levels (Figure S16), which is in agreement with the previous studies of IAP antagonists.
(§2) Cells were seeded in 384-well plates with respective treatments, and plates were incubated at 37 °C for 96 h. Viability assays were performed with or without the addition of TNF-α at 1 ng/mL. The cell viability readout was measured using the CellTiter-Glo Luminescent Cell Viability Assay (Promega, Madison, USA) and measured with a Synergy LX Multi-Mode plate reader (BioTek, Vermont, USA). All conditions were normalized to the DMSO-treated control. Data represents the mean ± SD of biological triplicates.
For orientation: ATP-based viability assays read luminescence as a measure of living cells.

The test system of another data set is HEL. The data set is described as follows: CellTiter-Glo cell viability assay, HEL. The format is cell-based. Conditions: Homo sapiens, HEL. As to the method: as §1, §2
The subject of another data set is JJN3. The data set is described as follows: CellTiter-Glo cell viability assay, JJN3. The format is cell-based. Conditions: Homo sapiens. The method, then:
as §1, §2

In the next data set the test system is K562. The data set is described as follows: CellTiter-Glo cell viability assay, K562. The format is cell-based. Particulars: Homo sapiens. As to the method: as §1, §2
For a further data set, the system named is SUDHL4. The data set is described as follows: CellTiter-Glo cell viability assay, SUDHL4. The format is cell-based. Particulars: Homo sapiens. The method, then: as §1, §2
The subject of a further data set is NCI-H929. The experiment in a line: CellTiter-Glo cell viability assay, NCI-H929. In kind it is cell-based. Conditions: Homo sapiens. The method, then: as §1, §2
Another data set relates to SUDHL6. The experiment in a line: CellTiter-Glo cell viability assay, SUDHL6. The format is cell-based. Particulars: Homo sapiens. The method, then:
as §1, §2

A further data set addresses cIAP2 (Homo sapiens, UniProt Q13489). The experiment in a line: Immunoblotting (western blot) quantification of cIAP2 levels in MM.1S cells. Particulars: MM1.S, 16 h, read-out: %remaining protein cIAP2, MM.1S cells, 16 h treatment at 0.1 μM, normalized to loading control and DMSO.
A further data set deals with XIAP (Homo sapiens, UniProt P98170). The data set is described as follows: Immunoblotting (western blot) quantification of XIAP levels in MM.1S cells. Particulars: MM1.S, 16 h, read-out: %remaining protein XIAP, MM.1S cells, 16 h treatment at 0.1 μM, normalized to loading control and DMSO.
For another data set, the system named is MM.1S cells proteome. The experiment in a line: diaPASEF quantitative proteomics in MM.1S cells: proteome-wide degradation selectivity (other proteins). Conditions: per-replicate values (rep1, rep2). In kind it is cell-based, human. As to the method: To analyze the proteome-wide degradation selectivity of hetero-PROTACs 9, 25, and 27, a diaPASEF-based mass spectrometry approach was employed.[54] MM.1S cells were treated with 100 nM PROTACs for 3 h. […] Accordingly, global proteomic plots show the mathematically imputed levels of IAP proteins in treatment groups if the corresponding IAP was detected in the control treatment (see also Experimental Section).
MM1s cells were treated with DMSO or 0.1 μM of compound for 3 h. The cells were harvested by centrifugation and washed with phosphate-buffered saline before snap-freezing in liquid nitrogen. The cells were lysed by addition of lysis buffer (8 M urea, 50 mM NaCl, 50 mM 4-(2-hydroxyethyl)-1-piperazine-ethanesulfonic acid (EPPS) pH 8.5, protease, and phosphatase inhibitors) and homogenization by bead beating (BioSpec) for three repeats of 30 s at 2400. Bradford assay was used to determine the final protein concentration in the clarified cell lysate. 50 μg of protein for each sample was reduced, alkylated, and precipitated using methanol/chloroform as previously described,[64] and the resulting washed precipitated protein was allowed to air dry. The precipitated protein was resuspended in 4 M urea, 50 mM HEPES pH 7.4, followed by dilution to 1 M urea with the addition of 200 mM EPPS, pH 8. […] The LysC digestion was diluted to 0.5 M urea with 200 mM EPPS pH 8, followed by digestion with trypsin (1:50; enzyme/protein) for 6 h at 37 °C. Sample digests were acidified with formic acid to a pH of 2–3 prior to desalting using C18 solid-phase extraction plates (SOLA, Thermo Fisher Scientific). Desalted peptides were dried in a vacuum centrifuge and reconstituted in 0.1% formic acid for LC–MS analysis.
Data were collected using a TimsTOF Pro2 (Bruker Daltonics, Bremen, Germany) coupled to a nanoElute LC pump (Bruker Daltonics, Bremen, Germany) via a CaptiveSpray nanoelectrospray source. […] Peptides were separated using a 50 min gradient of 2–30% buffer B (acetonitrile in 0.1% formic acid) with a flow rate of 250 nL/min and column temperature maintained at 50 °C.
Data-Dependent Acquisition (DDA) was performed in the Parallel Accumulation-Serial Fragmentation (PASEF) mode to determine effective ion mobility windows for downstream diaPASEF data collection.[54] The diaPASEF parameters included 100% duty cycle using accumulation and ramp times of 50 ms each, 1 TIMS-MS scan, and 10 PASEF ramps per acquisition cycle. The TIMS-MS survey scan was acquired between 100–1700 m/z and 1/K0 of 0.7–1.3 V × s/cm^2. Precursors with 1–5 charges were selected, and those that reached an intensity threshold of 20,000 arbitrary units were actively excluded for 0.4 min. The quadrupole isolation width was set to 2 m/z for m/z < 700 and 3 m/z for m/z > 800, with the m/z between 700 and 800 m/z being interpolated linearly. […] To perform diaPASEF, the precursor distribution in the DDA m/z-ion mobility plane was used to design an acquisition scheme for DIA data collection, which included two windows in each 50 ms diaPASEF scan. Data was acquired using 16 of these 25 Da precursor double window scans (creating 32 windows), which covered the diagonal scan line for doubly and triply charged precursors, with singly charged precursors able to be excluded by their position in the m/z-ion mobility plane. These precursor isolation windows were defined between 400–1200 m/z and 1/K0 of 0.7–1.3 V × s/cm^2.
The diaPASEF raw file processing and controlling peptide and protein level false discovery rates, assembling proteins from peptides, and protein quantification from peptides were performed using library-free analysis in DIA-NN 1.8.[65] The library-free mode performs an in silico digestion of a given protein sequence database alongside deep learning-based predictions to extract the DIA precursor data into a collection of MS^2 spectra.

The test system of a further data set is IKZF3. The data set is described as follows: Immunoblotting (western blot) quantification of IKZF3 levels in MM.1S cells. Conditions: 16 h treatment at 0.1 μM, normalized to loading control and DMSO. A general note: In western blotting, separated proteins are transferred to a membrane and probed.
The next data set relates to MOLM13. The data set is described as follows: CellTiter-Glo cell viability assay, MOLM13. Conditions: Homo sapiens. The format is cell-based. The method, then: as §1, §2
Another data set concerns RPMI-8826. The data set is described as follows: CellTiter-Glo cell viability assay, RPMI-8826. The format is cell-based. The method, then:
as §1, §2

Data set [1] in a line: Log D7.4 measurement by chromatographic (fast-gradient HPLC) method. Particulars: pH 7.4.
Procedure: The system was calibrated by plotting the retention times of six different drugs (atenolol, metoprolol, labetalol, diltiazem, triphenylene, and permethrin) versus their literature-known log D7.4 in a calibration line (R^2 = 0.99). Subsequently, the mean retention times of the analytes were taken to calculate their log D7.4 values with the aid of the calibration line. At least two independent measurements of each analyte were performed.
Data set [2] relates to IAPs (cIAP1, cIAP2, XIAP). The experiment in a line: Immunoblotting of IAPs in MM.1S cells, overall degradation profile, time course and washout. In kind it is cell-based. Conditions: 16 h, western blot, concentration (10 nM to 1 μM). As to the method: Next, we examined the persistence of IAP degradation in MM.1S cells after a single exposure to 1 μM of 9 and subsequent removal of the compound. […] The reliance on CRL2^VHL was assessed with a neddylation inhibitor MLN4924, which blocks the activity of CRLs (Figure S13A).

Chain of XIAP (P98170 whole entry): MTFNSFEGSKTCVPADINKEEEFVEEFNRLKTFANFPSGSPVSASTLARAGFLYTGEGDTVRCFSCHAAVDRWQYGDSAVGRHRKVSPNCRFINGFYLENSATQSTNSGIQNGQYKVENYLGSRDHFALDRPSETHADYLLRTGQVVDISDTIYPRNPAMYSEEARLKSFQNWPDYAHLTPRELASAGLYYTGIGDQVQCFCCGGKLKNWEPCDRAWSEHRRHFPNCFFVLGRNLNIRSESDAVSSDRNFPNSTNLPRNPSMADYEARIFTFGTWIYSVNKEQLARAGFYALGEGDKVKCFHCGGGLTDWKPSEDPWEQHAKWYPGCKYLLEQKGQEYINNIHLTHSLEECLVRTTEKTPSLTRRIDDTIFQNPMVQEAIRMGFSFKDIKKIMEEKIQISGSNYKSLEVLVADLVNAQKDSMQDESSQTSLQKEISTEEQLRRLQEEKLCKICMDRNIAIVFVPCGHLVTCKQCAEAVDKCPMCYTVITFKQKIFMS
Chain of cIAP2 (Q13489 whole entry): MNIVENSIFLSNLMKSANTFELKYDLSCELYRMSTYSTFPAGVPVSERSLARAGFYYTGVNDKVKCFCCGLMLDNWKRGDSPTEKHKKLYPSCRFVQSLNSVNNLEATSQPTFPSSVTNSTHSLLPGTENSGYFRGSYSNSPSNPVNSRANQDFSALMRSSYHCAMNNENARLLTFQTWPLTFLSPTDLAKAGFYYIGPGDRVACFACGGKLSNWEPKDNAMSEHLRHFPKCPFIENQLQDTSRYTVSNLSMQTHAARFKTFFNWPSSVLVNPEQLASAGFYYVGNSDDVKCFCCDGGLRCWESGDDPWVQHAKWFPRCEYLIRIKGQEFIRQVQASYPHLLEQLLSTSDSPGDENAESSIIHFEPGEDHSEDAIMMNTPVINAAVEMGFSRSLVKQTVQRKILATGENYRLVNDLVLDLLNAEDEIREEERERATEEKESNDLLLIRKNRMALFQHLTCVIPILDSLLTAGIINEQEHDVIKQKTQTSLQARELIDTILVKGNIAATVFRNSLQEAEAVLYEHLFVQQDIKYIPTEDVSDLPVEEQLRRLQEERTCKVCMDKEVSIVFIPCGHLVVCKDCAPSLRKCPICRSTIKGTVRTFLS
Procedure for IKZF3: To evaluate the capability of our panel of hetero-PROTACs for E3 ligase degradation, VHL19, VHL30, CRBN, cIAP1, cIAP2, and XIAP levels were quantified by western blot analyses. […] SDS-PAGE was performed, and proteins were then transferred onto PVDF membranes. Blotted membranes were blocked with 5% milk in Tris-buffered saline/Tween20 (TBST). Primary antibodies were diluted in 5% BSA in TBST, and incubations were performed overnight at 4 °C. Secondary HRP-conjugated antibodies diluted in 5% milk were incubated for 1 h at room temperature. Detection of proteins on PVDF was carried out using the WesternBright ECL HRP substrate or the WesternBright Sirius HRP substrate (Advansta, San Jose, USA) and imaged with LAS 4000× (Fujifilm). Membranes were subjected to 10 min incubation with Restore Western Blot Stripping Buffer (Thermo Fisher Scientific, Waltham, USA), followed by TBST washes. After brief re-activation with methanol, the membranes were blocked, and further probing of proteins was carried out.
Quantification of blots was performed using ImageJ software (National Institutes of Health).

Regarding `Nc1cccc2c1C(=O)N(C1CCC(=O)NC1=O)C2=O` (stereo not drawn) [POM, pomalidomide, reference compound], the IC50 in the data set with DB (read-out: DB) was greater than 10 µM; in the data set with HEL (read-out: HEL) it was greater than 10 µM; with JJN3 (JJN-3, read-out: JJN3), 0.042 µM; in the data set on K562 (K562, read-out: K562), greater than 10 µM; in the data set with SUDHL4 (SU-DHL-4, read-out: SUDHL4), greater than 10 µM; with NCI-H929 (NCI-H929, read-out: NCI-H929), greater than 10 µM. Moreover, the IC50 in the data set with SUDHL6 (SU-DHL-6, read-out: SUDHL6) was greater than 10 µM; in the data set with MOLM13 (MOLM-13, read-out: MOLM13) it was greater than 10 µM; with RPMI-8826 (read-out: RPMI-8826) it was greater than 10 µM. Moreover, the remaining activity at 0.1 µM on cIAP2 and on XIAP was 95% throughout. Besides, the “Precursor intensity (DIA-NN), CLPX precursor AAAAADLANR2” value in the data set on MM.1S cells proteome (CLPX_HUMAN (O76031), ATP-dependent Clp protease ATP-binding subunit clpX-like, mitochondrial, precursor charge 2) was 24680.8 and 25422.9. In addition, the “Precursor intensity (DIA-NN), RPL4 precursor AAAAAAALQAK1” value in the data set on MM.1S cells proteome (RL4_HUMAN (P36578), 60S ribosomal protein L4, precursor charge 1) came to 763.617. In the data set with MM.1S cells proteome (RL4_HUMAN (P36578), 60S ribosomal protein L4, precursor charge 2), the “Precursor intensity (DIA-NN), RPL4 precursor AAAAAAALQAK2” value was 420512 and 433546. For the same compound, the “Precursor intensity (DIA-NN), SAMD1 precursor AAAAAATAPPSPGPAQPGPR2” value in the data set on MM.1S cells proteome (SAMD1_HUMAN (Q6SPF0), Atherin, precursor charge 2) was 19530.8 and 11746.1. Besides, in the data set on MM.1S cells proteome (ZFP91_HUMAN (Q96JP5), E3 ubiquitin-protein ligase ZFP91, precursor charge 2), the “Precursor intensity (DIA-NN), ZFP91 precursor AAAAAAAAAVSR2” value was 26049.6 and 28242.6. Also, the “%remaining protein IKZF3” value with IKZF3 came to 14%.
For the compound `CN[C@@H](C)C(=O)N[C@H](C(=O)N1C[C@@H](Oc2cccc(OCCCCC(=O)N[C@H](C(=O)N3C[C@@H](O)C[C@H]3C(=O)NCc3ccc(-c4scnc4C)cc3)C(C)(C)C)c2)C[C@H]1C(=O)N[C@@H]1CCCc2ccccc21)C1CCCCC1` [PROTAC 11, (2S,4S)-1-((S)-2-Cyclohexyl-2-((S)-2-(methylamino)propanamido)acetyl)-4-(3-((5-(((S)-1-((2S,4S)-4-hydroxy-2-((4-(4-methylthiazol-5-yl)benzyl)carbamoyl)pyrrolidin-1-yl)-3,3-dimethyl-1-oxobutan-2-yl)amino)-5-oxopentyl)oxy)phenoxy)-N-((R)-1,2,3,4-tetrahydronaphthalen-1-yl)pyrrolidine-2-carboxamide], the IC50 was greater than 5 µM in the data set on DB (DLBCL cell line, 96 h, TNFα-challenged, read-out: IC50 cell viability DB); greater than 10 µM in the data set with HEL (AML cell line, 96 h, TNFα-challenged, read-out: IC50 cell viability HEL); greater than 5 µM with JJN3 (JJN-3, MM cell line, 96 h, TNFα-challenged, read-out: IC50 cell viability JJN3); greater than 10 µM with JJN3 (JJN-3, SI csv, head prints only the cell line, no quantity or unit, values parallel Table 1/S8, read-out: JJN3); greater than 5 µM in the data set with K562 (K562, AML cell line, 96 h, TNFα-challenged, read-out: IC50 cell viability K562); greater than 10 µM in the data set on K562 (SI csv, head prints only the cell line, no quantity or unit, values parallel Table 1/S8, read-out: K562). The IC50 was greater than 5 µM in the data set on SUDHL4 (SU-DHL-4, DLBCL cell line, 96 h, TNFα-challenged, read-out: IC50 cell viability SUDHL4); greater than 10 µM with SUDHL4 (SU-DHL-4, SI csv, head prints only the cell line, no quantity or unit, values parallel Table 1/S8, read-out: SUDHL4); greater than 5 µM in the data set with NCI-H929 (NCI-H929, MM cell line, 96 h, TNFα-challenged, read-out: IC50 cell viability NCI-H929); greater than 10 µM in the data set with NCI-H929 (SI csv, head prints only the cell line, no quantity or unit, values parallel Table 1/S8, read-out: NCI-H929); 0.17 µM in the data set with SUDHL6 (SU-DHL-6, DLBCL cell line, 96 h, TNFα-challenged, read-out: IC50 cell viability SUDHL6); greater than 1 µM in the data set with MOLM13 (MOLM-13, AML cell line, 96 h, TNFα-challenged, read-out: IC50 cell viability MOLM13). Moreover, the IC50 with RPMI-8826 (MM cell line, 96 h, TNFα-challenged, read-out: IC50 cell viability RPMI-8826) was greater than 5 µM; in the data set with RPMI-8826 (SI csv, head prints only the cell line, no quantity or unit, values parallel Table 1/S8, read-out: RPMI-8826) it was greater than 10 µM. The chromatographic logD in data set [1] amounted to 3.3. Moreover, the “IAP degradation profile (in words)” value in data set [2] is recorded as “induce only cIAP1 degradation; also recorded: only induced cIAP1 degradation”.

For orientation: chromatographic logD means lipophilicity estimated from chromatographic retention. Low values mean a more hydrophilic compound, high ones a more lipophilic compound.
